This is an account of results in paper PMC12259508, “Expediting multiple biological properties of main bioactive compounds of Mentha pulegium L” (AMB Express, 2025).

≈ marks a conversion by molar mass, not a printed value. Where two headings read alike, the source gives them in different places.

Test [1] relates to Staphylococcus aureus ATCC 29213. The experiment in a line: MIC and MBC determination, broth microdilution. The test is classed as cell-based. Particulars: for MBC / MIC: Staphylococcus aureus; for MBC: ATCC29213, 24 h; for MIC Staphylococcus aureus: broth microdilution. How it is done:
(§1) As mentioned before, the minimum inhibitory concentration (MIC) was established using the broth microdilution method. The minimum sample concentration required to destroy the bacteria is indicated by the minimum bactericidal concentration (MBC). The microdilution method, based on MIC determination, was similarly applied. After 24 h of incubation at 37 °C, […] of sample from each tube showing no apparent growth were inoculated on Tryptone Soja agar (Biokar, Beauvais, France). The MBC was determined as the lowest concentration showing no growth on the culture medium.

Test [2] relates to Escherichia coli ATCC 25922. The test is described as follows: MIC and MBC determination, broth microdilution. In kind it is cell-based. Particulars: for MBC: ATCC25922, 24 h, read-out: MBC Escherichia coli. How it is done: as §1
Background: Dilution methods test growth across graded concentrations, often in twofold steps.

Test [3] relates to Pseudomonas aeruginosa ATCC 27853. The test is described as follows: MIC and MBC determination, broth microdilution. In kind it is cell-based. Conditions: for MBC: ATCC27853, 24 h, read-out: MBC Pseudomonas aeruginosa. How it is done:
as §1

Test [4] concerns Listeria monocytogenes ATCC 13932. The test is described as follows: MIC and MBC determination, broth microdilution. In kind it is cell-based. Particulars: for MBC / MIC: Listeria monocytogenes; for MBC: ATCC13932, 24 h; for MIC Listeria monocytogenes: broth microdilution. How it is done: as §1
In test [5] the target is T1, α-amylase from Bacillus licheniformis (Bacillus licheniformis, UniProt P06278).
T1 construct: purchased
The test is described as follows: α-Amylase inhibitory assay (starch/DNS). Conditions: mean ± SD, triplicate. In kind it is biochemical. How it is done:
(§2) The α-glucosidase from Saccharomyces cerevisiae and the α-amylase from Bacillus licheniformis were also obtained from reliable commercial sources. Additional reagents were carefully selected from reputable suppliers. Mueller–Hinton agar was sourced from Biokar in Beauvais, France. All other chemicals used are of analytical grade.
Specifically, 250μL of the sample was mixed with an equal volume of α-amylase (240 U/mL) in a 0.02 M sodium phosphate buffer (SPB) (pH = 6.9). The mixtures were incubated at 37 °C for twenty minutes. Subsequently, 250 µL of a 1% starch solution in a 0.02 M SPB (pH = 6.9) was added to the reaction mixture, and the combination was allowed to sit at 37 °C for 15 min. One milliliter of dinitrosalicylic acid (DNS) was then introduced, and the blend was brought to a boil in a water bath for ten minutes. The reaction mixture was subsequently diluted with 2 mL of distilled water, and the absorbance was measured at 540 nm using an ultraviolet–visible spectrophotometer.

Test [6] concerns the target T2, elastase (Sus scrofa, UniProt P00772). The experiment in a line: Elastase inhibitory assay. The test is classed as biochemical. How it is done:
By adapting certain aspects, the methodology of this research is based on the protocol reported by Jeddi et al. (Jeddi et al. [2023]).
Then, 200 µL of an elastase solution prepared in Tris–HCl buffer (0.2 M, pH 8.0) was mixed with 50 µL of each sample. Following a 15-min incubation at 25 °C, 200 µL of N-succinyl-Ala-Ala-p-nitroanilide solution was added, and the reaction mixtures were homogenized. Absorbances were recorded at 410 nm after an additional 20-min incubation at 25 °C. […] Furthermore, the methodology described in this study should provide a valuable resource for future research assessing the effect of other natural compounds on elastase activity, thereby expanding our understanding of their beneficial properties.

Test [7] deals with T3, α-glucosidase from Saccharomyces cerevisiae (Saccharomyces cerevisiae, UniProt P53341).
T3 construct: purchased
The experiment in a line: α-Glucosidase inhibitory assay (pNPG). In kind it is biochemical. Particulars: mean ± SD, triplicate. How it is done:
as §2
Initially, 200 µL of the samples were mixed with 100 µL of 0.1 M SPB (pH = 6.7) containing 0.1 U/mL of α-glucosidase enzyme. The mixture was then incubated at 37 °C for ten minutes. One milligram of pNPG was dissolved in 0.1 ml of SPB (pH = 6.7). The activity of α-glucosidase was assessed by measuring the absorbance at 405 nm following the addition of 1 mL of 0.1 M Na2CO3 to the reaction mixture.

Test [8] concerns methicillin resistant Staphylococcus aureus (MRSA). Also noted: method as in Zhao et al. [2023b]. Particulars: ref Zhao et al. [2023b]; cited from earlier work.
A further test has as its system S. maltophilia. Details: method as in Baygar ([2019]). Conditions: ref Baygar ([2019]); cited from earlier work.
For test [9], the system named is Streptococcus equi subsp. equi. Also noted: method as in Nozohour and Jalilzadeh-amin [2021]. Conditions: ref Nozohour and Jalilzadeh-amin [2021]; cited from earlier work.
Test [10] relates to S. aureus. Details: method as in Sonboli et al. ([2006]). Particulars: ref Sonboli et al. ([2006]); cited from earlier work.
For a further test, the system named is E. coli K1. Details: method as in Gong et al. [2021]. Particulars: ref Gong et al. [2021], cited from earlier work.
Test [11] deals with S. aureus. Also noted: method as in Farhanghi et al. [2022]. Conditions: ref Farhanghi et al. [2022]; cited from earlier work.
Another test deals with S. epidermidis. Also noted: method as in Sonboli et al. ([2006]). Conditions: ref Sonboli et al. ([2006]); cited from earlier work.
The subject of test [12] is P. aeruginosa, S. aureus, and K. pneumoniae. Details: method as in Amalich et al. [2016]. Particulars: ref Amalich et al. [2016]; cited from earlier work.
The next test concerns the target α-amylase. Also noted: method as in Omari et al. [2023]. Conditions: ref Omari et al. [2023]; cited from earlier work.
A further test has as its target α-glucosidase. Also noted: method as in Omari et al. [2023]. Conditions: ref Omari et al. [2023]; cited from earlier work.
Test [13] deals with T2, elastase. Details: method as in our previous study. Particulars: ref our previous study, cited from earlier work.
Another test concerns the target tyrosinase (Agaricus bisporus, UniProt C7FF04). Details: method as in our previous study. Conditions: ref our previous study; cited from earlier work.
On the set-up of test [14]: method as in Luís and Domingues [2021]. Particulars: ref Luís and Domingues [2021]; cited from earlier work.
Setting [15] is: 24 h, 37 °C, read-out: MBC Staphylococcus aureus.
The mark [16] stands for this setting: ATCC29213, broth microdilution, read-out: MIC Staphylococcus aureus.
Where [17] appears, read: ATCC25922, broth microdilution, read-out: MIC Escherichia coli.
[18] abbreviates: ATCC27853, broth microdilution, read-out: MIC Pseudomonas aeruginosa.
The mark [19] stands for this setting: 24 h, 37 °C, read-out: MBC Listeria monocytogenes.
Setting [20] is: ATCC13932, broth microdilution, read-out: MIC Listeria monocytogenes.

T2 sequence (P00772 27-266): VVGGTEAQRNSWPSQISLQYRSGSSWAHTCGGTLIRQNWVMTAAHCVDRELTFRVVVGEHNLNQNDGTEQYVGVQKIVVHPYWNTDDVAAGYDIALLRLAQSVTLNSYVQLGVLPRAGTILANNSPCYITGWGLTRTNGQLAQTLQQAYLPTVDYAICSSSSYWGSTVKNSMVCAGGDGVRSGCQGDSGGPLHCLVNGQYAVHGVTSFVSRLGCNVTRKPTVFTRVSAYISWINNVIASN
T3 sequence (P53341 whole entry): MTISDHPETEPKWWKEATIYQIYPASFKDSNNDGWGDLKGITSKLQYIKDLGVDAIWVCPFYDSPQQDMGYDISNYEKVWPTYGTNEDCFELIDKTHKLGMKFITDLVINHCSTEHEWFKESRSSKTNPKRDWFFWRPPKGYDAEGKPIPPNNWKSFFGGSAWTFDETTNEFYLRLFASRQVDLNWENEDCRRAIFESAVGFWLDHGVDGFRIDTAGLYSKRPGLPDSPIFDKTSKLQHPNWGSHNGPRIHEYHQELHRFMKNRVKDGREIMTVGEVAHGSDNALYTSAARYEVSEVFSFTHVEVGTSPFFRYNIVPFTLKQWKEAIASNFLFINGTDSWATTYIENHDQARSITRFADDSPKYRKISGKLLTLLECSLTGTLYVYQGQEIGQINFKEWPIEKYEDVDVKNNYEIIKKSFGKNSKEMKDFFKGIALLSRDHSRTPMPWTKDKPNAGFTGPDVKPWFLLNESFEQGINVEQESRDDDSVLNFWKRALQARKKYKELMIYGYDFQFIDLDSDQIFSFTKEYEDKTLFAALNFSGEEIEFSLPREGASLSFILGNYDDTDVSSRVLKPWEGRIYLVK
T1 sequence (P06278 30-512): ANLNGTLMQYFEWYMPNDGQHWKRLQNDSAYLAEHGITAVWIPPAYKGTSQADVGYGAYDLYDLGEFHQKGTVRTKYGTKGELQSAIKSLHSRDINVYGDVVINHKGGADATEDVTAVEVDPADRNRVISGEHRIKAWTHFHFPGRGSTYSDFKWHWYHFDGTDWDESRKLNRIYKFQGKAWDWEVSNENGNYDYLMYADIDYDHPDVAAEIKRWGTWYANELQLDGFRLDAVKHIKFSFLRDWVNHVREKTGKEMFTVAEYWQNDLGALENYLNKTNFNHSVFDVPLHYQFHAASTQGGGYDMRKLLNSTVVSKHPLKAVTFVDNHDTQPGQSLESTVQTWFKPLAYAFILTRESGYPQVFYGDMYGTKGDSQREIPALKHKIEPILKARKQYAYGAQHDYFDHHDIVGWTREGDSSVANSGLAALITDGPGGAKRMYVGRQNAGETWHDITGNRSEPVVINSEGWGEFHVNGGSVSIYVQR
tyrosinase, sequence (C7FF04 1-392): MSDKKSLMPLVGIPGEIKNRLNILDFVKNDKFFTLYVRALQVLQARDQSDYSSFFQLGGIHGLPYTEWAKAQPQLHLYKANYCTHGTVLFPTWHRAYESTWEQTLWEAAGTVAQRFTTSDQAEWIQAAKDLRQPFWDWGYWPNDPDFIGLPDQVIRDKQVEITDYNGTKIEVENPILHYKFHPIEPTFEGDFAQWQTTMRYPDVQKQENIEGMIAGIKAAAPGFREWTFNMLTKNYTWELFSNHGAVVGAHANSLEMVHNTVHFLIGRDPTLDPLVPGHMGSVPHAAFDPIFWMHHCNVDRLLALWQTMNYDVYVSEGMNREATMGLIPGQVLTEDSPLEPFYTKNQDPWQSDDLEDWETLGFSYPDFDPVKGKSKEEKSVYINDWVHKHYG

`O=C(N[C@H](CO)[C@H](O)c1ccc([N+](=O)[O-])cc1)C(Cl)Cl` [Chloramphenicol, reference compound]: the MBC in test [1] (setting [15]) turned out to be 32 µg/mL (≈ 99 µM); in test [2] (37 °C) it was 32 µg/mL (≈ 99 µM); in test [3] (37 °C) it was 64 µg/mL (≈ 198 µM); in test [4] (setting [19]), 32 µg/mL (≈ 99 µM). The MIC in test [1] (setting [16]) came to 8 µg/mL (≈ 24.8 µM); in test [2] (setting [17]), 8 µg/mL (≈ 24.8 µM); in test [3] (setting [18]), 64 µg/mL (≈ 198 µM); in [4] (setting [20]), 16 µg/mL (≈ 49.5 µM).

With `CC(C)[C@@H]1CC[C@@H](C)CC1=O` [Menthone, menthone], the IC50 in test [5] was 968 µM; against elastase [6] it was 860 µM; in test [7] it was 703 µM. Besides, the “MBC Staphylococcus aureus” value in test [1] (24 h, 37 °C) was 0.125 µg/mL (≈ 0.81 µM). The MBC in [1] (setting [15]) is 0.125 to 0.25 µg/mL (≈ 0.81 to 1.62 µM); in test [2] (37 °C), above 2 µg/mL; in test [3] (37 °C) it was 1 µg/mL (≈ 6.48 µM); in test [4] (setting [19]), 0.125 to 0.25 µg/mL (≈ 0.81 to 1.62 µM). The MIC is 0.125 to 0.25 µg/mL (≈ 0.81 to 1.62 µM) in test [1] (setting [16]), 1 µg/mL (≈ 6.48 µM) in test [2] (setting [17]), 0.5 µg/mL (≈ 3.24 µM) in test [3] (setting [18]) and 0.125 to 0.25 µg/mL (≈ 0.81 to 1.62 µM) in [4] (setting [20]). Besides, the “MIC Staphylococcus aureus” value in [1] amounted to 0.125 µg/mL (≈ 0.81 µM). Further, in test [4] (24 h, 37 °C), the “MBC Listeria monocytogenes” value came out at 0.25 µg/mL (≈ 1.62 µM). Also, the “MIC Listeria monocytogenes” value in [4] worked out at 0.125 µg/mL (≈ 0.81 µM). Moreover, in test [8], the “MBC MRSA” value is 7.1 µg/mL (≈ 46 µM). Moreover, the “MIC MRSA” value in test [8] is 3.5 µg/mL (≈ 22.7 µM).

Regarding `CC(C)=C1CC[C@@H](C)CC1=O` [Pulegone, pulegone], the IC50 in [5] is 1200 µM; on elastase [6], 774 µM; in test [7], 783 µM. Further, in the test with S. maltophilia, the “MBC S. maltophilia” value was 5000 µg/mL (≈ 32800 µM). Besides, the “MIC S. maltophilia” value in the test on S. maltophilia is 2500 µg/mL (≈ 16400 µM). For the same compound, the “inhibition zone S. maltophilia” value in the test with S. maltophilia is 28 mm. In addition, in test [1] (24 h, 37 °C), the “MBC Staphylococcus aureus” value is 0.25 µg/mL (≈ 1.64 µM). Besides, the MBC was 0.125 to 0.25 µg/mL (≈ 0.821 to 1.64 µM) in test [1] (read-out: MBC Staphylococcus aureus, 24 h, 37 °C); 0.5 µg/mL (≈ 3.28 µM) in test [2]; 0.5 µg/mL (≈ 3.28 µM) in test [3]; 0.125 to 0.25 µg/mL (≈ 0.821 to 1.64 µM) in test [4] (read-out: MBC Listeria monocytogenes, 24 h, 37 °C). For the same compound, the MIC in [1] (ATCC29213, read-out: MIC Staphylococcus aureus, broth microdilution) was 0.125 to 0.25 µg/mL (≈ 0.821 to 1.64 µM); in [2] (ATCC25922, read-out: MIC Escherichia coli) it was 0.25 µg/mL (≈ 1.64 µM); in [3] (ATCC27853, read-out: MIC Pseudomonas aeruginosa), 0.5 µg/mL (≈ 3.28 µM); in test [4] (ATCC13932, read-out: MIC Listeria monocytogenes, broth microdilution), 0.125 to 0.25 µg/mL (≈ 0.821 to 1.64 µM). In test [1], the “MIC Staphylococcus aureus” value is 0.125 µg/mL (≈ 0.821 µM). Besides, the “MBC Listeria monocytogenes” value in test [4] (24 h, 37 °C) turned out to be 0.125 µg/mL (≈ 0.821 µM). Further, the “MIC Listeria monocytogenes” value in [4] is reported as 0.125 µg/mL (≈ 0.821 µM). Besides, the “inhibition zone Streptococcus equi subsp. equi” value in [9] is 20 mm. In addition, in the test on S. aureus [10], the “activity against S. aureus” value is 1.8 ± 0.3 mg/mL. Moreover, in the test with E. coli K1 (E. coli K1), the reduced biofilm formation is recorded as 52.36%. The “MBC E. coli K1” value in the test with E. coli K1 was 47350 µg/mL (≈ 311000 µM). For the same compound, in the test with E. coli K1, the “MIC E. coli K1” value was 23680 µg/mL (≈ 156000 µM). The “MIC S. aureus” value with S. aureus [11] is given as 5.85 μl/mL. For the same compound, the “activity against S. epidermidis” value with S. epidermidis was 1.8 ± 0.3 mg/mL. Further, the “inhibitory effects on P. aeruginosa, S. aureus, and K. pneumoniae” value in test [12] is 2.80–11.20 µl/mL.

As to `CC1=CCC2CC1C2(C)C` (stereo not drawn) [α-pinene], the “IC50 α-amylase” value on α-amylase was 82.12 ± 4.52 µg/mL (≈ 603 µM). Further, the “IC50 α-glucosidase” value on α-glucosidase was 95.62 ± 4.11 µg/mL (≈ 702 µM). The IC50 at elastase [13] (read-out: IC50 anti-elastase (converted)) is 471 µM.

In the case of `CC12CCC(CC1)C(C)(C)O2` [eucalyptol, reference compound], the “MIC S. aureus” value in the test on S. aureus [11] is reported as 23.43 μl/mL.

Regarding `C=C(C)[C@H]1CC=C(C)CC1` [limonene], at tyrosinase, the IC50 anti-tyrosinase was 74.24 ± 2.06 µg/mL (≈ 545 µM). In addition, on elastase [13], the IC50 anti-elastase is 91.25 ± 3.06 µg/mL (≈ 670 µM).

Regarding `CC(=O)Oc1ccccc1C(=O)O` [acetylsalicylic acid], in [14], the “IC50 inhibition of protein denaturation” value is given as 89.47 ± 2.64 %, v/v.

One may read the MBC as the smallest concentration meeting the test's criterion for killing. As a reminder, the MIC is the lowest concentration that inhibits growth of the organism. Usually IC50 stands for the concentration that inhibits the measured activity by half.
